The subject of one data set is senescent IMR90 cells. In words: CellTiter-Glo cell viability assay, senescent IMR90. Type of data set: cell-based, human. The protocol:
(§1) To determine whether ABT-263 is selectively toxic to senescent cells compared to non-senescent cells, a cell viability assay was used to assess cell survival following treatment with ABT-263. IMR90 cells (human primary lung fibroblasts (IMR90) (IMR-90 (ATCC® CCL-186™, Manassas, Virginia) were seeded in six well plates, and cells were induced to senescence with 10 Gy of ionizing radiation (IR) (Day 0). The media was refreshed every 3 days. The senescent phenotype is allowed to develop for 7 days at which point a cell count was made to determine the baseline number of cells followed by seeding into 96-well plates. On day 8, the senescent cells (irradiated) and the non-senescent cells (the non-radiated cells), were exposed to serial dilutions of ABT-263 for a period of 3 days. ABT-263 concentrations ranged from 0.5 nM to 3 μM. Each condition was seeded in triplicate.
(§2) After three days of treatment (Day 11), cells were assayed for cell survival using the commercially available CellTiter-Glo® (CTG) Luminescent Cell Viability Assay (Promega Corporation, Madison, Wisconsin). The assay determines the number of viable cells in culture based on the quantitation of ATP present which is an indicator of metabolically active cells.
The experiments performed for assessing the effect of these other Bcl-2 inhibitors were performed essentially as described in Example 7. Cells were exposed to ABT-199 at serial dilution concentrations ranging from 15 nM to 100 μM (FIGS. 26 and 27). Cells were exposed to Obatoclax at concentrations ranging from 1.4 nM to 9 μM (FIG. 28).
IMR90 cells were induced to senescence by irradiation as described in Example 7. The irradiated IMR90 cells and non-senescent IMR90 cells were then exposed to a compound called ML214 that is a Bcl-2A1 specific inhibitor.
The effect of ABT-263 in combination with the Akt inhibitor MK-2206 was tested for selective toxicity of senescent cells compared to non-senescent cells in IMR90 cells. The methods of Example 7 were repeated except that cell cultures were exposed to 10 nM MK-2206 (Selleckem, Cat #S1078) in addition to serial dilutions of ABT-263.

Data set [1] concerns senescent IMR90 cells (Sen(IR) IMR90). In words: Cell counting assay, senescent IMR90. Type of data set: cell-based, human. To be noted: 3 μM, 24 hour exposure. How it is done: (§3) To determine whether ABT-263 is selectively toxic to senescent cells compared to non-senescent cells, a cell counting assay was used to determine cell survival following treatment with ABT-263. […] Each condition was seeded in three wells and counted independently. Cells were counted after a 24 hour exposure to ABT-263 (or control culture).

The test system of data set [2] is non-senescent IMR90 cells. In words: Cell counting assay, non-senescent IMR90. To be noted: 3 μM, 24 hour exposure. The class given is cell-based, human. The protocol: as §3
Data set [3] relates to senescent Primary Renal Cortical Cells. In words: CellTiter-Glo cell viability assay, senescent renal epithelial cells. The class given is cell-based. To be noted: 72 h, 3 days. How it is done: as §1, §2
(§4) The methods of Example 7 were repeated in other cell strains. […]

The test system of data set [4] is non-senescent IMR90 cells. In words: CellTiter-Glo cell viability assay, non-senescent IMR90. The class given is cell-based. To be noted: Homo sapiens, IMR-90, 72 h; non-senescent IMR90, 3 days. How it is done: as §1, §2
The experiments performed for assessing the effect of these other Bcl-2 inhibitors were performed essentially as described in Example 7. […]

Data set [5] deals with senescent HCA2 foreskin fibroblast cells. Put plainly: CellTiter-Glo cell viability assay, senescent HCA2. The class given is cell-based. The conditions noted are these: 72 h; senescent HCA2, 3 days. How it is done: as §1, §2, §4
Data set [6] relates to senescent IMR90 cells (IMR90 Sen(IR)). In words: Pan-caspase inhibitor (Q-VD-OPh) apoptosis assay in IMR90 cells. The class given is cell-based, human.
Protocol: Lung fibroblast cell line IMR90 (human primary lung fibroblasts, ATCC® CCL-186™, Manassas, Virginia) were seeded in six-well plates and induced to senesce with 10 Gy of ionizing radiation (IR) as described in Example 12. After senescence was established, cells were re-seeded into 96 well plates. […] At the end of the assay time period, cells were counted. Each condition was seeded in three plate wells and counted independently. […] Cell survival was determined using the commercially available CellTiter-Glo® Luminescent Cell Viability Assay (Promega Corporation, Madison, Wisconsin). The assay determines the number of viable cells in culture based on the quantitation of ATP present which is an indicator of metabolically active cells.
Data set [7] has as its system 3MR or INK-ATTAC mice exposed to cigarette smoke. In words: Chronic cigarette smoke exposure model (COPD). The class given is in vivo, mouse. To be noted: after 2 months of cigarette smoke exposure; vs untreated controls. The protocol: In a second animal model for pulmonary diseases (e.g., COPD), mice were exposed to cigarette smoke. The effect of a senolytic agent on the mice exposed to smoke is assessed by senescent cell clearance, lung function, and histopathology.
Six week-old 3MR (n=35) or INK-ATTAC (n=35) mice were chronically exposed to cigarette smoke generated from a Teague TE-10 system, an automatically-controlled cigarette smoking machine that produces a combination of side-stream and mainstream cigarette smoke in a chamber, which is transported to a collecting and mixing chamber where varying amounts of air is mixed with the smoke mixture. The COPD protocol was adapted from the COPD core facility at Johns Hopkins University (at Internet site web.jhu.edu/Biswal/exposure_core/copd.html#Cigarette_Smoke) (Rangasamy et al., 2004, J. Clin. Invest. 114:1248-1259; Yao et al., 2012, J. Clin. Invest. 122:2032-2045). Mice received a total of 6 hours of cigarette smoke exposure per day, 5 days a week for 6 months. Each lighted cigarette (3R4F research cigarettes containing 10.9 mg of total particulate matter (TPM), 9.4 mg of tar, and 0.726 mg of nicotine, and 11.9 mg carbon monoxide per cigarette [University of Kentucky, Lexington, KY]) was puffed for 2 seconds and once every minute for a total of 8 puffs, with the flow rate of 1.05 L/min, to provide a standard puff of 35 cm^3. The smoke machine was adjusted to produce a mixture of side stream smoke (89%) and mainstream smoke (11%) by smoldering 2 cigarettes at one time. The smoke chamber atmosphere was monitored for total suspended particulates (80-120 mg/m^3) and carbon monoxide (350 ppm). Beginning at day 7, (10) INK-ATTAC and (10) 3MR mice were treated with AP20187 (3× per week) or gancyclovir (5 consecutive days of treatment followed by 16 days off drug, repeated until the end of the experiment), respectively. An equal number of mice received the corresponding vehicle. The remaining […] (15 INK-ATTAC and 15 3MR) were evenly split with 5 of each genetically modified strain placed into three different treatment groups. One group (n=10) received Nutlin-3A (25 mg/kg dissolved in 10% DMSO/3% Tween-20 in PBS, treated 14 days consecutively followed by 14 days off drug, repeated until the end of the experiment). […]
After two months of cigarette smoke exposure, lung function was assessed by monitoring oxygen saturation using the MouseSTAT PhysioSuite pulse oximeter (Kent Scientific). […] Mice were monitored for 30 seconds and the average peripheral capillary oxygen saturation (SpO2) measurement over this duration was calculated.

The test system of data set [8] is p16-3MR mice treated with paclitaxel. In words: Voluntary exercise (wheel counts) after paclitaxel in p16-3MR mice. The class given is in vivo, mouse. To be noted: ABT-263 100 mg/kg i.p. daily 7 days; ganciclovir 25 mg/kg i.p. daily 3 days. How it is done:
The capability of a senolytic agent, such as ABT-263, to reduce chemotherapy related side effects, such as fatigue, was examined in p16-3MR transgenic mice. In addition to doxorubicin, paclitaxel also induces cellular senescence when administered to animals. See Example 2 for a description of the p16-3MR transgenic mouse model.
In this experiment, paclitaxel was administered to groups of p16-3mr mice (n=4) three times, every two days. Two days after the third dose of paclitaxel, ganciclovir was administered daily for three days (days 1, 2, and 3) intraperitoneally at 25 mg/kg. ABT-263 (100 mg/kg) was administered intraperitoneally daily for seven days after paclitaxel administration. Two days after the last dose of ABT-263, all groups of animals were housed in metabolic cages (promethion, sable systems international, Las Vegas, NV) to monitor voluntary exercise as determined by wheel counts. Data were collected and analyzed two days later. Clearance of senescent cells by ABT-263 and ganciclovir restored approximately 70% of wheel count reduction caused by chemotherapy treatment.

In data set [9] the test system is non-senescent Primary Renal Cortical Cells. Put plainly: CellTiter-Glo cell viability assay, non-senescent renal epithelial cells. The class given is cell-based. The conditions noted are these: 72 h, 3 days. The protocol: as §1, §2, §4
The subject of data set [10] is non-senescent HCA2 foreskin fibroblast cells. In words: CellTiter-Glo cell viability assay, non-senescent HCA2. Type of data set: cell-based. To be noted: 72 h; non-senescent HCA2, 3 days. How it is done:
as §1, §2, §4

As to `CC1(C)CCC(c2ccc(Cl)cc2)=C(CN2CCN(c3ccc(C(=O)NS(=O)(=O)c4ccc(N[C@H](CCN5CCOCC5)CSc5ccccc5)c(S(=O)(=O)C(F)(F)F)c4)cc3)CC2)C1` [ABT-263, 4-[4-[[2-(4-chlorophenyl)-5,5-dimethylcyclohexen-1-yl]methyl]piperazin-1-yl]-N-[4-[[(2R)-4-morpholin-4-yl-1-phenylsulfanylbutan-2-yl]amino]-3-(trifluoromethylsulfonyl)phenyl]sulfonylbenzamide], the IC50 was 140 nM in the data set with senescent IMR90 cells (Homo sapiens, IMR-90, 72 h, senescent IMR90, 3 days); 25 nM in data set [3]; 2400 nM in data set [4]; 410 nM in [5]; 430 nM in [9]; above 3000 nM in [10]. In addition, the “In vitro theoretical therapeutic index” value in the data set on senescent IMR90 cells (IMR90, non-senescent vs senescent IC50) came to 17. The “Cell counts relative to counts before treatment” value in data set [1] stood at 28%. In addition, the “Percentage of survival of cells after 24 hours” value in [2] is “absence of toxicity”. The “Percent of surviving senescent cells in the presence of the pan-caspase inhibitor” value in data set [6] (0.33 or 1 μM, 3 days, Q-VD-OPh 20 μM) was “increased”. Besides, the “Selective killing of senescent cells” value in data set [6] (IMR90, 3 days) is “selectively kills senescent cells”. Besides, the SpO2 levels result in data set [7] is reported as “statistically significant increases”. In data set [8], the “Restoration of wheel count reduction caused by chemotherapy” value is given as “approximately 70%”.

(Values after patent US11980616B2, “Treating liver disease by selectively eliminating senescent cells” (Buck Institute for Research on Aging, priority 2014, dated 2024).)
